Reference: ChEMBL document CHEMBL4673219, “Novel 5,6-disubstituted pyrrolo[2,3-d]pyrimidine derivatives as broad spectrum antiproliferative agents: Synthesis, cell based assays, kinase profile and molecular docking study” (Bioorg Med Chem, 2018)
Values joined by “and” are separate entries in the source; they are usually repeats but may differ in a detail not shown here. Equal entries are not always repeated.

Tests used:
Format in all cases: functional
[1] = test system: MDA-MB-231; experiment: Growth inhibition of human MDA-MB-231/ATCC cells incubated for 48 hrs by sulforhodamine B assay; details: Homo sapiens
[2] = test system: SR; experiment: Growth inhibition of human SR cells assessed as growth percentage at 100 uM incubated for 48 hrs by sulforhodamine B assay relative to control; details: read-out: Activity
[3] = test system: NCI-H522; experiment: Growth inhibition of human NCI-H522 cells incubated for 48 hrs by sulforhodamine B assay
[4] = test system: NCI/ADR-RES; experiment: Growth inhibition of human NCI/ADR-RES cells incubated for 48 hrs by sulforhodamine B assay
[5] = test system: RXF 393; experiment: Growth inhibition of human RXF 393 cells assessed as growth percentage at 10 uM incubated for 48 hrs by sulforhodamine B assay relative to control; details: read-out: Activity
[6] = test system: NCI-H23; experiment: Growth inhibition of human NCI-H23 cells assessed as growth percentage at 0.1 uM incubated for 48 hrs by sulforhodamine B assay relative to control; details: read-out: Activity
[7] = test system: OVCAR-8; experiment: Growth inhibition of human OVCAR-8 cells assessed as growth percentage at 0.01 uM incubated for 48 hrs by sulforhodamine B assay relative to control; details: read-out: Activity
[8] = test system: UO-31; experiment: Growth inhibition of human UO-31 cells incubated for 48 hrs by sulforhodamine B assay; details: 48 h
[9] = test system: MDA-MB-468; experiment: Growth inhibition of human MDA-MB-468 cells assessed as growth percentage at 100 uM incubated for 48 hrs by sulforhodamine B assay relative to control; details: read-out: Activity
[10] = test system: MCF7; experiment: Growth inhibition of human MCF7 cells incubated for 48 hrs by sulforhodamine B assay; details: Homo sapiens, MCF7, 48 h
[11] = test system: CCRF-CEM; experiment: Growth inhibition of human CCRF-CEM cells incubated for 48 hrs by sulforhodamine B assay; details: Homo sapiens, CCRF-CEM
[12] = test system: KM12; experiment: Growth inhibition of human KM12 cells incubated for 48 hrs by sulforhodamine B assay; details: Homo sapiens
[13] = test system: BT-549; experiment: Growth inhibition of human BT-549 cells incubated for 48 hrs by sulforhodamine B assay
[14] = test system: HCT-116; experiment: Growth inhibition of human HCT-116 cells incubated for 48 hrs by sulforhodamine B assay; details: Homo sapiens, HCT-116, 48 h
[15] = test system: UACC-62; experiment: Growth inhibition of human UACC-62 cells assessed as growth percentage at 1 uM incubated for 48 hrs by sulforhodamine B assay relative to control; details: read-out: Activity
[16] = test system: BT-549; experiment: Growth inhibition of human BT-549 cells assessed as growth percentage at 10 uM incubated for 48 hrs by sulforhodamine B assay relative to control; details: read-out: Activity
[17] = test system: M14; experiment: Growth inhibition of human M14 cells assessed as growth percentage at 0.01 uM incubated for 48 hrs by sulforhodamine B assay relative to control; details: read-out: Activity
[18] = test system: NCI-H226; experiment: Growth inhibition of human NCI-H226 cells assessed as growth percentage at 100 uM incubated for 48 hrs by sulforhodamine B assay relative to control; details: read-out: Activity
[19] = test system: NCI-H226; experiment: Growth inhibition of human NCI-H226 cells assessed as growth percentage at 10 uM incubated for 48 hrs by sulforhodamine B assay relative to control; details: read-out: Activity
[20] = test system: M14; experiment: Growth inhibition of human M14 cells incubated for 48 hrs by sulforhodamine B assay; details: Homo sapiens, M14, 48 h
[21] = test system: CCRF-CEM; experiment: Growth inhibition of human CCRF-CEM cells assessed as growth percentage at 0.01 uM incubated for 48 hrs by sulforhodamine B assay relative to control; details: read-out: Activity
[22] = test system: MDA-MB-435; experiment: Growth inhibition of human MDA-MB-435 cells assessed as growth percentage at 100 uM incubated for 48 hrs by sulforhodamine B assay relative to control; details: read-out: Activity
[23] = test system: UACC-257; experiment: Growth inhibition of human UACC-257 cells assessed as growth percentage at 0.1 uM incubated for 48 hrs by sulforhodamine B assay relative to control; details: read-out: Activity
[24] = test system: SK-MEL-28; experiment: Growth inhibition of human SK-MEL-28 cells incubated for 48 hrs by sulforhodamine B assay
[25] = test system: SNB-19; experiment: Growth inhibition of human SNB-19 cells assessed as growth percentage at 10 uM incubated for 48 hrs by sulforhodamine B assay relative to control; details: read-out: Activity
[26] = test system: A549; experiment: Growth inhibition of human A549/ATCC cells assessed as growth percentage at 1 uM incubated for 48 hrs by sulforhodamine B assay relative to control; details: read-out: Activity
[27] = test system: Malme-3M; experiment: Growth inhibition of human Malme-3M cells assessed as growth percentage at 0.01 uM incubated for 48 hrs by sulforhodamine B assay relative to control; details: read-out: Activity
[28] = test system: MOLT-4; experiment: Growth inhibition of human MOLT-4 cells assessed as growth percentage at 1 uM incubated for 48 hrs by sulforhodamine B assay relative to control; details: read-out: Activity
[29] = test system: OVCAR-4; experiment: Growth inhibition of human OVCAR-4 cells assessed as growth percentage at 0.1 uM incubated for 48 hrs by sulforhodamine B assay relative to control; details: read-out: Activity
[30] = test system: SF-268; experiment: Growth inhibition of human SF-268 cells assessed as growth percentage at 0.01 uM incubated for 48 hrs by sulforhodamine B assay relative to control; details: read-out: Activity
[31] = test system: HL-60(TB); experiment: Growth inhibition of human HL-60(TB) cells assessed as growth percentage at 10 uM incubated for 48 hrs by sulforhodamine B assay relative to control; details: read-out: Activity
[32] = test system: SNB-75; experiment: Growth inhibition of human SNB-75 cells incubated for 48 hrs by sulforhodamine B assay
[33] = test system: Malme-3M; experiment: Growth inhibition of human Malme-3M cells assessed as growth percentage at 1 uM incubated for 48 hrs by sulforhodamine B assay relative to control; details: read-out: Activity
[34] = test system: OVCAR-3; experiment: Growth inhibition of human OVCAR-3 cells assessed as growth percentage at 1 uM incubated for 48 hrs by sulforhodamine B assay relative to control; details: read-out: Activity
[35] = test system: NCI-H322M; experiment: Growth inhibition of human NCI-H322M cells incubated for 48 hrs by sulforhodamine B assay; details: 48 h, read-out: LC50 (the source's name)
[36] = test system: NCI-H522; experiment: Growth inhibition of human NCI-H522 cells assessed as growth percentage at 1 uM incubated for 48 hrs by sulforhodamine B assay relative to control; details: read-out: Activity
[37] = test system: SNB-75; experiment: Growth inhibition of human SNB-75 cells assessed as growth percentage at 10 uM incubated for 48 hrs by sulforhodamine B assay relative to control; details: read-out: Activity
[38] = read-out: LC50 (the source's name)

Nc1nc2[nH]c(CN3CCN(c4cc(Cl)cc(Cl)c4)CC3)c(CN3CCN(c4cc(Cl)cc(Cl)c4)CC3)c2c(=O)[nH]1
TGI ([1]; MDA-MB-231): 3.98 µM | GI50 ([1]; MDA-MB-231, 48 h): 2.01 µM | growth at 100 µM [2]: -30% | GI50 [3]: 1.74 µM | TGI [3]: 3.44 µM | TGI [4]: 100 µM and > 1 µM | CC50 [4, 38]: > 100 µM | growth at 10 µM [5]: 81% | growth at 0.1 µM [6]: 107% | growth at 0.01 µM [7]: 100% | GI50 [8]: 1.17 µM and 11.7 µM | TGI [8]: 31.8 µM and 3.18 µM | growth at 100 µM [9]: -44% | GI50 [10]: 1.58 µM | TGI [10]: 3.43 µM | TGI [11]: 5.52 µM | GI50 ([11]; 48 h): 2.07 µM | TGI ([12]; KM12): 3.42 µM | GI50 ([12]; KM12, 48 h): 1.83 µM | CC50 ([12]; KM12, read-out: LC50 (the source's name)): 6.38 µM | GI50 [13]: 1.72 µM | TGI [13]: 3.76 µM | GI50 [14]: 1.63 µM | TGI [14]: 3.17 µM | CC50 [14, 38]: 6.18 µM | growth at 1 µM [15]: 96% | growth at 10 µM [16]: 87% | growth at 0.01 µM [17]: 93% | growth at 100 µM [18]: -25% | growth at 10 µM [19]: 96.5% | GI50 [20]: 1.83 µM | TGI [20]: 3.63 µM | growth at 0.01 µM [21]: 99% | growth at 100 µM [22]: -80% | growth at 0.1 µM [23]: 99% | GI50 [24]: 1.79 µM | TGI [24]: 3.62 µM | growth at 10 µM [25]: 79.8% | growth at 1 µM [26]: 92% | growth at 0.01 µM [27]: 95% | growth at 1 µM [28]: 90% | growth at 0.1 µM [29]: 95% | growth at 0.01 µM [30]: 102% | growth at 10 µM [31]: 24.4% | GI50 [32]: 1.42 µM | TGI [32]: 2.74 µM | growth at 1 µM [33]: 101% | growth at 1 µM [34]: 98% | CC50 [35]: 73.2 µM and 7.32 µM | growth at 1 µM [36]: 91% | growth at 10 µM [37]: 63.7%
